This passage reports average survival, radiation-induced invasion gains and invasion results from US11008325B2, “Inhibitors of cancer invasion, attachment, and/or metastasis” (VIRGINIA COMMONWEALTH UNIVERSITY, priority 2016, dated 2021).

The subject of assay [1] is U1242-Luc cells. Put plainly: intracranial U1242-Luc tumors, PDZ1i with or without radiation. The class given is in vivo, nude mice. As to the method: FIGS. 14A-14F. PDZ1i treatment combined with radiation in an in vivo model of GBM. FIG. 14A. U1242-luc cells were injected intracranially into nude mice. After 7 days mice were randomized to 4 groups, and mice receiving therapy were treated on days 11-14 as pictured. FIG. 14B. Kaplan-Meier survival curves for each treatment group. Median survival as listed. Two brain tissue samples were isolated for each group, sectioned, and H and E staining is shown. FIG. 14C, DMSO treated mice, FIG. 14D, PDZ1i treated mice, FIG. 14E, mice treated with radiation and DMSO; FIG. 14F, mice treated with radiation and PDZ1i.
PDZ1i combined with radiation extends survival and reduces GBM invasion in vivo. We next investigated the combination of PDZ1i with radiotherapy in vivo. U1242-Luc cells were injected intracranially under anesthesia and formed tumors, confirmed by imaging at 7 d post-injection. At this point, mice were randomized to 4 groups: DMSO treatment, PDZ1i treatment (30 mg/kg), DMSO+IR, and PDZ1i+IR. Treatment began on 11 d post-injection and mice receiving radiation were treated with 2.5 Gy for 4 consecutive d. PDZ1i was administered 2 h prior to radiation treatment on each of the 4 treatment d (FIG. 14A). […] To investigate this, brain tissue sections were collected and H & E stains were analyzed. […]

Assay [2] deals with U87 cells. Put plainly: trans-well Matrigel invasion assay. In kind it is cell-based, human. As to the method:
FIGS. 7A-7B. FIG. 7A. Im-PHFA, primary immortal human fetal astrocyte cells were infected with an MDA-9/Syntenin expression plasmid carrying adenovirus. 48 hrs post-infection both the control and MDA-9/Syntenin overexpressing cells were treated with DMSO or PDZ1i followed by seeding in a trans-well Matrigel invasion assay and stained after 24 hrs. FIG. 7B. T98G and U87 were treated with DMSO or PDZ1i and seeding in a trans-well Matrigel invasion assay and stained after 24 hrs. Invasion was quantified from 4 random fields. Data represents fold changes and average±S.D.
FIGS. 8A-8D. PDZ1i produces similar effects to mda-9/syntenin knockdown post-radiation. FIG. 8A. ImPHFA and U87 cells were treated with 50 μM PDZ1i 2 h prior to radiation and analyzed for colony formation after 14 d. […] U87 cells were treated with 50 μM PDZ1i 2 h prior to radiation and analyzed via MTT assay after 24 h. […] Invasion was quantified from 5 random fields in FIG. 8D. […]
Invasion was measured using 24-well BioCoat cell culture inserts (BD Biosciences, Bedford, Mass.) with an 8-μm-porosity polyethylene terephthalate membrane coated with Matrigel Basement Membrane Matrix (100 μg/cm^2). […] Cells remaining on the upper surface of the filters were removed by wiping with a cotton swab, and invasion was determined by counting the cells that migrated to the lower side of the filter using at least 5 fields per insert at 100× magnification. […]

`Cc1cc(NC(=O)c2nc3[nH]c4c(c(=O)n3n2)CCC4)c(C)cc1NC(=O)CCc1nnc(-c2ccccc2)o1` [113B7, N-(2,5-dimethyl-4-(3-(5-phenyl-1,3,4-oxadiazol-2-yl)propanamido)phenyl)-8-oxo-5,6,7,8-tetrahydro-4H-cyclopenta[d][1,2,4]triazolo[1,5-a]pyrimidine-2-carboxamide]: the average survival worked out at 78.8 days in assay [1] (PDZ1i 30 mg/kg 2 h prior to IR, 2.5 Gy for 4 consecutive d) and 54.7 days in assay [1] (PDZ1i 30 mg/kg alone). The radiation-induced invasion gains entry in assay [2] (50 μM PDZ1i 2 h prior to 2 and 5 Gy) is listed as “abolished these invasion gains”. Also, the invasion entry in assay [2] (PDZ1i versus DMSO) is “effectively inhibited invasion”.
